Values of other authors as cited in US20240325349A1, “LIQUID PHARMACEUTICAL FORMULATIONS OF TOPIRAMATE” (TaP Pharmaceuticals AG, priority 2023, published 2024).
Read-outs that look alike come from different tables or passages of the source.

Topiramate Solubility (in Aconon C-30 (oil)): 50.7 ± 3.5 mg/mL | Topiramate Solubility (in Capmul MCM C-8 (oil)): 62.5 ± 3.9 mg/mL | Topiramate Solubility (in Capmul MCM EP (oil)): 61.4 ± 3.8 mg/mL | Topiramate Solubility (in Captex 355 (oil)): 14.5 ± 0.8 mg/mL | Topiramate Solubility (in Carbitol (cosurfactant)): 355.6 ± 29.2 mg/mL | Topiramate Solubility (in Cremophor EL (surfactant)): 78 ± 2.1 mg/mL | Topiramate Solubility (in Cremophor RH-40 (surfactant)): 46 ± 2.7 mg/mL | Topiramate Solubility (in Ethyl Oleate (oil)): 6.7 ± 0.3 mg/mL | Topiramate Solubility (in IPM (oil)): 6.7 ± 0.4 mg/mL | Topiramate Solubility (in Oleic Acid (oil)): 0.1 ± 0.1 mg/mL | Topiramate Solubility (in PEG 200 (cosurfactant)): 169.6 ± 2.3 mg/mL | Topiramate Solubility (in PEG 400 (cosurfactant)): 148.9 ± 3.5 mg/mL | Topiramate Solubility (in Sesfol 218 (oil)): 53.6 ± 2.6 mg/mL | Topiramate Solubility (in Tween 20 (surfactant)): 142.8 ± 6.4 mg/mL | Topiramate Solubility (in Tween 80 (surfactant)): 84.2 ± 3^ mg/mL
SMILES: CC1(C)O[C@@H]2[C@@H](CO[C@@]3(COS(N)(=O)=O)OC(C)(C)O[C@@H]23)O1 [Topiramate, 2,3:4,5-Di-O-isopropylidene-β-D-fructopyranose sulfamate]
